Several values for one entry are separate records, joined by “and”; a condition that tells them apart may be missing. Equal values may be shown once. Read-outs that look alike come from different tables or passages of the source.
Assay: Pharmacokinetic parameters (Tmax, AUClast, Cmax) of DD217 in phase II trial patients
Type: in vivo, human (patients undergoing knee replacement surgery)
Design: AUClast (area under the concentration-time curve up to the last measurable point) / Cmax (maximum plasma concentration): unit not given here
Details: for AUC(0-t) / Cmax / Tmax: human, plasma, oral; for AUClast (area under the concentration-time curve up to the last measurable point) / Cmax (maximum plasma concentration) / Tmax (time to maximum plasma concentration): individual patients
Text: The design, eligibility criteria, and outcomes of the phase II clinical trial evaluating the safety and tolerability of DD217 (NCT05189002, ClinicalTrials.gov) have been described previously. Briefly, this was a multicenter, double-blind, randomized, prospective phase II study designed to determine the optimal dosing regimen and to assess the safety and efficacy of DD217 for the prevention of venous thromboembolism (VTE) in patients undergoing knee replacement surgery. Patients were randomized into one of three groups: two groups received oral DD217 at doses of 40 mg or 60 mg once daily, starting on the morning of the first postoperative day, and one group received the active comparator, dalteparin sodium. The treatment duration was 14 days.
In total, data from 52 patients who underwent knee replacement surgery were included in the analysis. Of these, 34 patients received DD217 at daily doses of 40 mg (n = 16) or 60 mg (n = 18), and 18 patients received dalteparin sodium.
To characterize the pharmacokinetic profile of DD217 in our study, three parameters were assessed: Cmax, Tmax, and AUClast.

## CC(=N)N(C)c1ccc(C(=O)Nc2ccc(C)cc2C(=O)Nc2ccc(Cl)cn2)cc1.Cl [DD217, N-(5-chloropyridin-2-yl)-5-methyl-2-[4-(N-methylacetimidamido)benzamido]benzamide hydrochloride]
40 mg, CYP2C19 *1/*17, *17/*17, RM + UM (n = 9), mean ± SD, read-out: AUClast
  AUC(0-t): 47.7 ± 42.6 ng·h/mL
40 mg, CYP2C19 *1/*17, *17/*17, RM + UM (n = 9), mean ± SD, read-out: Cmax
  Cmax: 5.8 ± 6.73 ng/mL
40 mg, CYP2C19 *1/*17, *17/*17, RM + UM (n = 9), mean ± SD, read-out: Tmax
  Tmax: 7.67 ± 6.71 h
40 mg, CYP3A *1/*1, EM (n = 12), mean ± SD, read-out: AUClast
  AUC(0-t): 40 ± 42.1 ng·h/mL
40 mg, CYP3A *1/*1, EM (n = 12), mean ± SD, read-out: Cmax
  Cmax: 5.02 ± 6.92 ng/mL
40 mg, CYP3A *1/*1, EM (n = 12), mean ± SD, read-out: Tmax
  Tmax: 11.8 ± 9.5 h
60 mg/day, ABCB1 rs1045642 C/C (n 3), read-out: AUClast (SD)
  AUC(0-t): 197 ng·h/mL
60 mg/day, ABCB1 rs1045642 C/C (n 3), read-out: Cmax (SD)
  Cmax: 15.9 ng/mL
60 mg/day, ABCB1 rs1045642 C/C (n 3), read-out: Tmax (SD)
  Tmax: 2 h
60 mg/day, ABCB1 rs1045642 T/C (n 8), read-out: AUClast (SD)
  AUC(0-t): 53.9 ng·h/mL
60 mg/day, ABCB1 rs1045642 T/C (n 8), read-out: Cmax (SD)
  Cmax: 5.54 ng/mL
60 mg/day, ABCB1 rs1045642 T/C (n 8), read-out: Tmax (SD)
  Tmax: 7.75 h
60 mg/day, ABCB1 rs1045642 T/T (n 7), read-out: AUClast (SD)
  AUC(0-t): 27.6 ng·h/mL
60 mg/day, ABCB1 rs1045642 T/T (n 7), read-out: Cmax (SD)
  Cmax: 2.42 ng/mL
60 mg/day, ABCB1 rs1045642 T/T (n 7), read-out: Tmax (SD)
  Tmax: 13.6 h
60 mg/day, ABCB1 rs1128503 C/C (n 4), read-out: AUClast (SD)
  AUC(0-t): 164 ng·h/mL
60 mg/day, ABCB1 rs1128503 C/C (n 4), read-out: Cmax (SD)
  Cmax: 14.1 ng/mL
60 mg/day, ABCB1 rs1128503 C/C (n 4), read-out: Tmax (SD)
  Tmax: 2 h
60 mg/day, ABCB1 rs1128503 T/C (n 10), read-out: AUClast (SD)
  AUC(0-t): 50.5 ng·h/mL
60 mg/day, ABCB1 rs1128503 T/C (n 10), read-out: Cmax (SD)
  Cmax: 4.66 ng/mL
60 mg/day, ABCB1 rs1128503 T/C (n 10), read-out: Tmax (SD)
  Tmax: 9 h
60 mg/day, ABCB1 rs1128503 T/T (n 4), read-out: AUClast (SD)
  AUC(0-t): 14 ng·h/mL
60 mg/day, ABCB1 rs1128503 T/T (n 4), read-out: Cmax (SD)
  Cmax: 1.49 ng/mL
60 mg/day, ABCB1 rs1128503 T/T (n 4), read-out: Tmax (SD)
  Tmax: 16.2 h
60 mg/day, ABCB1 rs2032582 G/G (n 4), read-out: AUClast (SD)
  AUC(0-t): 164 ng·h/mL
60 mg/day, ABCB1 rs2032582 G/G (n 4), read-out: Cmax (SD)
  Cmax: 14.1 ng/mL
60 mg/day, ABCB1 rs2032582 G/G (n 4), read-out: Tmax (SD)
  Tmax: 2 h
60 mg/day, ABCB1 rs2032582 T/G (n 9), read-out: AUClast (SD)
  AUC(0-t): 51.6 ng·h/mL
60 mg/day, ABCB1 rs2032582 T/G (n 9), read-out: Cmax (SD)
  Cmax: 4.87 ng/mL
60 mg/day, ABCB1 rs2032582 T/G (n 9), read-out: Tmax (SD)
  Tmax: 9.56 h
60 mg/day, ABCB1 rs2032582 T/T (n 5), read-out: AUClast (SD)
  AUC(0-t): 19.4 ng·h/mL
60 mg/day, ABCB1 rs2032582 T/T (n 5), read-out: Cmax (SD)
  Cmax: 1.74 ng/mL
60 mg/day, ABCB1 rs2032582 T/T (n 5), read-out: Tmax (SD)
  Tmax: 13.8 h
60 mg/day, ABCB1 rs4148738 C/C (n 5), read-out: AUClast (SD)
  AUC(0-t): 18.9 ng·h/mL
60 mg/day, ABCB1 rs4148738 C/C (n 5), read-out: Cmax (SD)
  Cmax: 1.78 ng/mL
60 mg/day, ABCB1 rs4148738 C/C (n 5), read-out: Tmax (SD)
  Tmax: 10.6 h
60 mg/day, ABCB1 rs4148738 C/T (n 9), read-out: AUClast (SD)
  AUC(0-t): 51.9 ng·h/mL
60 mg/day, ABCB1 rs4148738 C/T (n 9), read-out: Cmax (SD)
  Cmax: 4.85 ng/mL
60 mg/day, ABCB1 rs4148738 C/T (n 9), read-out: Tmax (SD)
  Tmax: 11.3 h
60 mg/day, ABCB1 rs4148738 T/T (n 4), read-out: AUClast (SD)
  AUC(0-t): 164 ng·h/mL
60 mg/day, ABCB1 rs4148738 T/T (n 4), read-out: Cmax (SD)
  Cmax: 14.1 ng/mL
60 mg/day, ABCB1 rs4148738 T/T (n 4), read-out: Tmax (SD)
  Tmax: 2 h
60 mg, CYP2C8 rs10509681 T/C (n 2), read-out: AUClast (SD)
  AUC(0-t): 62.5 ng·h/mL
60 mg, CYP2C8 rs10509681 T/C (n 2), read-out: Cmax (SD)
  Cmax: 5.69 ng/mL
60 mg, CYP2C8 rs10509681 T/C (n 2), read-out: Tmax (h, SD)
  Tmax: 3 h
60 mg, CYP2C8 rs10509681 T/T (n 16), read-out: AUClast (SD)
  AUC(0-t): 68.2 ng·h/mL
60 mg, CYP2C8 rs10509681 T/T (n 16), read-out: Cmax (SD)
  Cmax: 6.11 ng/mL
60 mg, CYP2C8 rs10509681 T/T (n 16), read-out: Tmax (h, SD)
  Tmax: 9.81 h
60 mg, CYP2C8 rs11572080 C/C (n 16), read-out: AUClast (SD)
  AUC(0-t): 68.2 ng·h/mL
60 mg, CYP2C8 rs11572080 C/C (n 16), read-out: Cmax (SD)
  Cmax: 6.11 ng/mL
60 mg, CYP2C8 rs11572080 C/C (n 16), read-out: Tmax (h, SD)
  Tmax: 9.81 h
60 mg, CYP2C8 rs11572080 C/T (n 2), read-out: AUClast (SD)
  AUC(0-t): 62.5 ng·h/mL
60 mg, CYP2C8 rs11572080 C/T (n 2), read-out: Cmax (SD)
  Cmax: 5.69 ng/mL
60 mg, CYP2C8 rs11572080 C/T (n 2), read-out: Tmax (h, SD)
  Tmax: 3 h
60 mg, CYP2C9 *1/*1, NM (n = 11), mean ± SD, read-out: AUClast
  AUC(0-t): 37.5 ± 42.4 ng·h/mL
60 mg, CYP2C9 *1/*1, NM (n = 11), mean ± SD, read-out: Cmax
  Cmax: 3.66 ± 4.07 ng/mL
60 mg, CYP2C9 *1/*1, NM (n = 11), mean ± SD, read-out: Tmax
  Tmax: 12.9 ± 9.14 h
60 mg, CYP2C9 *2/*3, PM (n = 2), mean ± SD, read-out: AUClast
  AUC(0-t): 177 ± 224 ng·h/mL
60 mg, CYP2C9 *2/*3, PM (n = 2), mean ± SD, read-out: Cmax
  Cmax: 11.3 ± 13.6 ng/mL
60 mg, CYP2C9 *2/*3, PM (n = 2), mean ± SD, read-out: Tmax
  Tmax: 2.5 ± 2.12 h
60 mg, CYP2C19 *1/*1, NM (n = 8), mean ± SD, read-out: AUClast
  AUC(0-t): 98 ± 124 ng·h/mL
60 mg, CYP2C19 *1/*1, NM (n = 8), mean ± SD, read-out: Cmax
  Cmax: 8.44 ± 9.71 ng/mL
60 mg, CYP2C19 *1/*1, NM (n = 8), mean ± SD, read-out: Tmax
  Tmax: 8.75 ± 10.1 h
60 mg, CYP2C19 *1/*17, RM (n = 6), mean ± SD, read-out: AUClast
  AUC(0-t): 50.5 ± 51.6 ng·h/mL
60 mg, CYP2C19 *1/*17, RM (n = 6), mean ± SD, read-out: Cmax
  Cmax: 4.5 ± 4.61 ng/mL
60 mg, CYP2C19 *1/*17, RM (n = 6), mean ± SD, read-out: Tmax
  Tmax: 9.17 ± 7.33 h
60 mg, CYP3A *1/*1, EM (n = 16), mean ± SD, read-out: AUClast
  AUC(0-t): 52.7 ± 63.3 ng·h/mL
60 mg, CYP3A *1/*1, EM (n = 16), mean ± SD, read-out: Cmax
  Cmax: 5.32 ± 6.58 ng/mL
60 mg, CYP3A *1/*1, EM (n = 16), mean ± SD, read-out: Tmax
  Tmax: 9.75 ± 8.93 h
40 mg/day oral
  AUClast (area under the concentration-time curve up to the last measurable point): 39.7 and 128.526 and 20.601 and 13.049 and 18.213 and 10.234 and 34.56 and 101.166 and 120.462 and 21.211 and 2.735 and 84.631 and 10.412 and 4.928 and 48.451 and 17.602
  Cmax (maximum plasma concentration): 3.95 and 22.764 and 1.686 and 1.136 and 1.739 and 0.656 and 5.76 and 15.011 and 19.462 and 3.535 and 0.456 and 5.034 and 0.72 and 0.405 and 3.119 and 1.379
  Tmax (time to maximum plasma concentration): 1 h and 12 h
60 mg/day oral
  AUClast (area under the concentration-time curve up to the last measurable point): 19.08 and 237.522 and 35.852 and 16.597 and 21.462 and 105.854 and 58.513 and 4.589 and 25.375 and 51.929 and 37.407 and 14.483 and 13.976 and 62.698 and 11.57 and 152.359 and 11.552 and 335.306
  Cmax (maximum plasma concentration): 1.663 and 25.28 and 3.324 and 1.155 and 1.59 and 9.707 and 7.329 and 0.325 and 2.291 and 4.963 and 2.974 and 1.614 and 1.37 and 8.694 and 1.712 and 13.569 and 0.613 and 20.897
  Tmax (time to maximum plasma concentration): 1 h and 12 h and 5 h

Reference: PMC12655527, “An Investigational Study on the Role of ADME Agents’ Genetic Variation on DD217 Pharmacokinetics and Safety Profile” (Pharmaceuticals, 2025)
